Results taken from PMC6768028, “Synthesis, SAR and in vitro therapeutic potentials of thiazolidine-2,4-diones” (Chemistry Central Journal, 2018).
≈ marks a conversion by molar mass, not a printed value. Like-named read-outs stand apart in the source and are kept apart here.

Key:
[1] = Antioxidant activity: free radical scavenging method by DPPH assay; conditions: for % inhibition (DPPH), 25 μg/ml / % inhibition (DPPH), 50 μg/ml / % inhibition (DPPH), 75 μg/ml / % inhibition (DPPH), 100 μg/ml: 30 min, 517 nm; for IC50 (antioxidant activity, DPPH): calculated via graph of % inhibition
Procedure: The antioxidant activity of the newly synthesized compounds were evaluated spectrophotometrically using free radical scavenging method by DPPH (2,2-diphenyl-1-picrylhydrazyl) assay. The DPPH is a stable free radical with maximal absorption at 517 nm and is reduced to a corresponding hydrazine when it reacting with hydrogen donors. […] DPPH solution (3 μg/ml) was prepared in methanol and DPPH (in 1:1) solution was used for blank reference. Four dilutions of different concentrations (25, 50, 75 and 100 μg/ml) of each synthesized compound and standard (ascorbic acid) were prepared in the methanol and 1 ml of each concentration was added to 1 ml of DPPH solution. The solution mixture was shaken vigorously and kept in dark place for 30 min at room temperature and absorbance was measured by UV at 517 nm. Percentage inhibition of Free radical DPPH was calculated as follows:1 %Inhibition=ABlank-ASample/ABlank×100 where, ABlank: absorbance of the blank reaction, ASample: absorbance of the test compound.

Candida albicans = assay: Antifungal activity, tube dilution method (MIC); assay type: cell-based; conditions: 48 h
Procedure: (§1) The in vitro antimicrobial activity of synthesized compounds was done by tube dilution method against Gram-positive bacteria: Staphylococcus aureus, Bacillus subtilis, Gram-negative bacteria: Escherichia coli, Klebsiella pneumonia, Salmonella typhi and fungal: Candida albicans and Aspergillus niger strains using cefadroxil and fluconazole as standard. Dilutions of test and standard compounds were prepared in double strength nutrient broth for bacterial strains and Sabouraud dextrose broth for fungal strains.

Aspergillus niger = assay: Antifungal activity, tube dilution method (MIC); assay type: cell-based; conditions: 168 h
Procedure: as §1

Staphylococcus aureus = assay: Antimicrobial activity, tube dilution method (MIC); assay type: cell-based; conditions: 24 h, read-out: Minimum inhibitory concentration, S. aureus, tube dilution, 37 ± 1 °C, 24 h
Procedure: as §1

Bacillus subtilis = assay: Antimicrobial activity, tube dilution method (MIC); assay type: cell-based; conditions: 24 h
Procedure: as §1

Escherichia coli = assay: Antimicrobial activity, tube dilution method (MIC); assay type: cell-based; conditions: 24 h, read-out: Minimum inhibitory concentration, E. coli, tube dilution, 37 ± 1 °C, 24 h
Procedure: as §1

Salmonella typhi = assay: Antimicrobial activity, tube dilution method (MIC); assay type: cell-based; conditions: Salmonella enterica, TYPHI, 24 h, read-out: Minimum inhibitory concentration, S. typhi
Procedure: as §1

Klebsiella pneumonia = assay: Antimicrobial activity, tube dilution method (MIC); assay type: cell-based; conditions: Klebsiella pneumoniae, 24 h
Procedure: as §1

[2] = test system: α-amylase enzyme (diastase); assay: Antidiabetic activity: α-amylase inhibitory activity using diastase, colorimetric method; assay type: biochemical; conditions: for IC50 (antidiabetic activity, α-amylase): calculated via graph of % inhibition
Procedure: All the synthesized compounds were evaluated against α-amylase inhibitory activity by using diastase based on colorimetric method. 0.25 g of soluble potato starch was dissolved in 50 ml of 20 mM phosphate buffer by heating for 15 min. 1 mg diastase (amylase enzyme) was mixed in 100 ml of 20 mM phosphate buffer (pH 6.9) to obtain the enzyme solution. Different concentrations of all the synthesized derivatives were prepared by dissolving them in DMSO. […] 1 ml of enzyme solution was mixed with 1 ml of each synthesized derivatives and incubated for 10 min at 25 °C. Then 1 ml of this mixture was mixed with 1 ml of soluble potato starch solution in a tube and incubated for 10 min at 25 °C. Then tubes were closed after adding 1 ml of color reagent and placed into water bath for 15 min at 85 °C. The reaction mixture was removed from water bath after 15 min. After cooling, the reaction mixture was diluted with 9 ml of distilled water and the absorbance was taken at 540 nm in UV spectrophotometer. Blank solution was prepared by replacing the enzyme solution with buffer solution and absorbance was taken. Measurement of control was performed in identical manner by replacing the synthesized derivatives in 1 ml of DMSO.
Percentage inhibition of α-amylase enzyme was calculated by using following formula:1 %Inhibition=ABlank-ASample/ABlank×100

[3] = read-out: Minimum inhibitory concentration, C. albicans, tube dilution, 37 ± 1 °C, 48 h
[4] = read-out: Minimum inhibitory concentration, A. niger, tube dilution, 25 ± 1 °C, 7 days
[5] = read-out: Minimum inhibitory concentration, B. subtilis, tube dilution, 37 ± 1 °C, 24 h
[6] = read-out: Minimum inhibitory concentration, K. pneumonia, tube dilution, 37 ± 1 °C, 24 h
[7] = tube dilution, 37 ± 1 °C, read-out: Minimum inhibitory concentration, B. subtilis
[8] = tube dilution, 37 ± 1 °C, read-out: Minimum inhibitory concentration, K. pneumonia

Row | SMILES | % inhibition (DPPH), 25 μg/ml [1] [%] | % inhibition (DPPH), 50 μg/ml [1] [%] | % inhibition (DPPH), 75 μg/ml [1] [%] | % inhibition (DPPH), 100 μg/ml [1] [%] | IC50 (antioxidant activity, DPPH) [1] [mg/L] | MIC (Candida albicans; [3]) [mM] | MIC (Aspergillus niger; [4]) [mM] | MIC (Staphylococcus aureus) [mM] | MIC (Bacillus subtilis; [5]) [mM] | MIC (Escherichia coli) [mM] | MIC (Salmonella typhi) [mM] | MIC (Klebsiella pneumonia; [6]) [mM] | % inhibition (α-amylase), 25 μg/ml [2] [%] | % inhibition (α-amylase), 50 μg/ml [2] [%] | % inhibition (α-amylase), 75 μg/ml [2] [%] | % inhibition (α-amylase), 100 μg/ml [2] [%] | IC50 (antidiabetic activity, α-amylase) [2] [mg/L] | further results
1 | O=C1NC(=O)C(=Cc2ccc([N+](=O)[O-])cc2)S1 [Compound 1, 5-(4-Nitrobenzylidene)thiazolidine-2,4-dione] | 32.64 | 40.22 | 73.41 | 84.81 | 36.35 (≈ 145 µM) | 4.9 (≈ 1230 µg/mL) | 4.9 (≈ 1230 µg/mL) | 4.9 (≈ 1230 µg/mL) | 9.9 (≈ 2480 µg/mL) | 4.9 (≈ 1230 µg/mL) | 4.9 (≈ 1230 µg/mL) | 9.9 (≈ 2480 µg/mL) | 22.65 | 35.79 | 55.52 | 88.68 | 54.35 (≈ 217 µM) | 
2 | C[C@H]1O[C@H](O[C@H]2[C@H](O)[C@@H](O)[C@@H](O[C@H]3[C@H](O)[C@@H](O)C(O)O[C@@H]3CO)O[C@@H]2CO)[C@H](O)[C@@H](O)[C@@H]1N[C@H]1C=C(CO)[C@@H](O)[C@H](O)[C@H]1O (stereo partly shown) [Acarabose, Acarbose, reference compound] |  |  |  |  |  |  |  |  |  |  |  |  | 37.35 | 53.45 | 73.25 | 88.57 |  | 
3 | COc1ccc(C=C2SC(=O)NC2=O)cc1OC [Compound 19, 5-(3,4-Dimethoxybenzylidene)thiazolidine-2,4-dione] | 28.64 | 39.67 | 73.41 | 90.05 | 46.03 (≈ 174 µM) | 4.7 (≈ 1250 µg/mL) | 4.7 (≈ 1250 µg/mL) | 4.7 (≈ 1250 µg/mL) | 4.7 (≈ 1250 µg/mL) | 4.7 (≈ 1250 µg/mL) | 4.7 (≈ 1250 µg/mL) | 9.4 (≈ 2490 µg/mL) | 29.33 | 47.77 | 58.34 | 90.86 | 40.01 (≈ 151 µM) | 
4 | O=C1NC(=O)C(=Cc2ccccc2O)S1 [Compound 17, 5-(2-Hydroxybenzylidene)thiazolidine-2,4-dione] | 32.78 | 40.24 | 69.55 | 89.87 | 40.06 (≈ 181 µM) | 5.65 (≈ 1250 µg/mL) | 5.65 (≈ 1250 µg/mL) | 5.65 (≈ 1250 µg/mL) |  | 5.65 (≈ 1250 µg/mL) | 5.65 (≈ 1250 µg/mL) |  | 23.67 | 48.56 | 65.46 | 93.17 | 48.48 (≈ 219 µM) | MIC (Bacillus subtilis; [7]): 11.3 mM (≈ 2500 µg/mL); MIC (Klebsiella pneumonia; [8]): 11.3 mM (≈ 2500 µg/mL)
5 | O=C1NC(=O)C(=C/C=C/c2ccccc2)S1 [Compound 20, 5-((E)-3-Phenylallylidene)thiazolidine-2,4-dione] | 25.64 | 46.93 | 69.55 | 87.97 | 43.89 (≈ 190 µM) | 5.4 (≈ 1250 µg/mL) | 5.4 (≈ 1250 µg/mL) | 5.4 (≈ 1250 µg/mL) | 5.4 (≈ 1250 µg/mL) | 5.4 (≈ 1250 µg/mL) | 5.4 (≈ 1250 µg/mL) | 10.8 (≈ 2500 µg/mL) | 34.73 | 45.98 | 68.34 | 88.45 | 31.62 (≈ 137 µM) | 
6 | O=C1O[C@H]([C@@H](O)CO)C(O)=C1O [Ascorbic acid, ascorbic acid, reference compound] | 38.99 | 55.78 | 72.51 | 93.15 | 21.64 (≈ 123 µM) |  |  |  |  |  |  |  |  |  |  |  |  | 
7 | O=C1NC(=O)C(=Cc2ccc(Cl)cc2Cl)S1 [Compound 3, 5-(2,4-Dichlorobenzylidene)thiazolidine-2,4-dione] | 35.89 | 42.67 | 70.25 | 85.44 | 29.04 (≈ 106 µM) | 4.5 (≈ 1230 µg/mL) | 4.5 (≈ 1230 µg/mL) | 4.5 (≈ 1230 µg/mL) | 4.5 (≈ 1230 µg/mL) | 9.12 (≈ 2500 µg/mL) | 4.5 (≈ 1230 µg/mL) | 9.12 (≈ 2500 µg/mL) | 29.45 | 47.98 | 60.83 | 95.79 | 43.45 (≈ 159 µM) | 
8 | COc1cc(C=C2SC(=O)NC2=O)ccc1O [Compound 18, 5-(4-Hydroxy-3-methoxybenzylidene)thiazolidine-2,4-dione] | 36.94 | 43.52 | 60.12 | 93.03 | 33.51 (≈ 133 µM) | 4.9 (≈ 1230 µg/mL) | 4.9 (≈ 1230 µg/mL) | 4.9 (≈ 1230 µg/mL) | 4.9 (≈ 1230 µg/mL) | 4.9 (≈ 1230 µg/mL) | 4.9 (≈ 1230 µg/mL) | 9.9 (≈ 2490 µg/mL) | 18.64 | 45.85 | 65.11 | 95.98 | 56.39 (≈ 224 µM) | 
9 | COc1ccc(C=C2SC(=O)NC2=O)cc1 [Compound 12, 5-(4-methoxybenzylidene)thiazolidine-2,4-dione] | 20.67 | 42.75 | 77.84 | 90.50 | 53.27 (≈ 226 µM) | 5.31 (≈ 1250 µg/mL) | 5.31 (≈ 1250 µg/mL) | 10.6 (≈ 2490 µg/mL) | 10.6 (≈ 2490 µg/mL) | 5.31 (≈ 1250 µg/mL) | 5.31 (≈ 1250 µg/mL) | 10.6 (≈ 2490 µg/mL) | 27.77 | 53.23 | 62.27 | 79.43 | 27.63 (≈ 117 µM) | 
10 | O=C1NC(=O)C(=Cc2ccccc2[N+](=O)[O-])S1 [Compound 4, 5-(2-Nitrobenzylidene)thiazolidine-2,4-dione] | 29.45 | 45.75 | 79.74 | 83.10 | 36.17 (≈ 145 µM) | 4.99 (≈ 1250 µg/mL) | 4.99 (≈ 1250 µg/mL) | 4.99 (≈ 1250 µg/mL) | 9.9 (≈ 2480 µg/mL) |  | 4.99 (≈ 1250 µg/mL) | 9.9 (≈ 2480 µg/mL) | 31.26 | 40.65 | 63.93 | 92.61 | 43.63 (≈ 174 µM) | 
11 | CC1=C(C(=O)O)N2C(=O)[C@@H](NC(=O)[C@H](N)c3ccc(O)cc3)[C@H]2SC1 [Cefadroxil, cefadroxil, reference compound] |  |  |  |  |  |  |  | 1.71 (≈ 621 µg/mL) |  | 1.71 (≈ 621 µg/mL) | 1.71 (≈ 621 µg/mL) |  |  |  |  |  |  | MIC (Bacillus subtilis; [7]): 3.4 mM (≈ 1240 µg/mL); MIC (Klebsiella pneumonia; [8]): 3.4 mM (≈ 1240 µg/mL)
12 | OC(Cn1cncn1)(Cn1cncn1)c1ccc(F)cc1F [Fluconazole, fluconazole, reference compound] |  |  |  |  |  |  |  |  |  |  |  |  |  |  |  |  |  | MIC (Candida albicans; tube dilution, 37 ± 1 °C, read-out: Minimum inhibitory concentration, C. albicans): 4.08 mM (≈ 1250 µg/mL); MIC (Aspergillus niger; tube dilution, 25 ± 1 °C, 7 days, read-out: Minimum inhibitory concentration, A. niger): 4.08 mM (≈ 1250 µg/mL)
